Assay results from ChEMBL document CHEMBL1201862, “PubChem BioAssay data set” (2004).
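The compound was tested at five concentrations on cells cultured in 96-well plates, with a 48-hour exposure period. GI50 = concentration required for 50% inhibition of growth.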 Active and inactive are the calls of the source. Cut-off read from the data, not from the text of the source: active = GI50 up to about 1.1 µM and inactive = higher.

Legend:
Assay in all cases: NCI anticancer screen, dose series, 48 h
Hs-578T = tested on: Hs-578T
A498 = tested on: A498
NCI-H226 = tested on: NCI-H226
SNB-19 = tested on: SNB-19
Malme-3M = tested on: Malme-3M
KM12 = tested on: KM12
OVCAR-5 = tested on: OVCAR-5
MDA-MB-435 = tested on: MDA-MB-435
HL-60 = tested on: HL-60
MDA-MB-231 = tested on: MDA-MB-231
SF-539 = tested on: SF-539
U-251 = tested on: U-251
NCI-H23 = tested on: NCI-H23
RXF 393 = tested on: RXF 393
HCC 2998 = tested on: HCC 2998
IGROV-1 = tested on: IGROV-1
PC-3 = tested on: PC-3
786-0 = tested on: 786-0
RPMI-8226 = tested on: RPMI-8226
ACHN = tested on: ACHN

Structure (SMILES)	GI50 (Hs-578T)	GI50 (A498)	GI50 (NCI-H226)	GI50 (SNB-19)	GI50 (Malme-3M)	GI50 (KM12)	GI50 (OVCAR-5)	GI50 (MDA-MB-435)	GI50 (HL-60)	GI50 (MDA-MB-231)	GI50 (SF-539)	GI50 (U-251)	GI50 (NCI-H23)	GI50 (RXF 393)	GI50 (HCC 2998)	GI50 (IGROV-1)	GI50 (PC-3)	GI50 (786-0)	GI50 (RPMI-8226)	GI50 (ACHN)
O=C(OCc1ccccc1)c1ccc(NCc2cc(O)ccc2O)cc1	1.51 µM (inactive)	1.09 µM (active)	2.42 µM (inactive)	2.85 µM (inactive)	1.56 µM (inactive)	1.52 µM (inactive)	3.85 µM (inactive)	1.58 µM (inactive)	0.303 µM (active)	1.91 µM (inactive)	0.902 µM (active)	1.29 µM (inactive)	1.53 µM (inactive)	1.07 µM (active)	2.15 µM (inactive)	1.23 µM (inactive)	1.36 µM (inactive)	1.11 µM (active)	0.372 µM (active)	1.43 µM (inactive)
O=S(=O)(N1CCCCN(S(=O)(=O)C(F)(F)F)CCCN(S(=O)(=O)C(F)(F)F)CCCCN(S(=O)(=O)C(F)(F)F)CCCN(S(=O)(=O)C(F)(F)F)CCCCN(S(=O)(=O)C(F)(F)F)CCCN(S(=O)(=O)C(F)(F)F)CCCCN(S(=O)(=O)C(F)(F)F)CCC1)C(F)(F)F	> 31.6 µM (inactive)	> 31.6 µM (inactive)	> 31.6 µM (inactive)	> 31.6 µM (inactive)	> 31.6 µM (inactive)	> 31.6 µM (inactive)	> 100 µM (inactive)	> 31.6 µM (inactive)	> 31.6 µM (inactive)	> 31.6 µM (inactive)	> 31.6 µM (inactive)	> 100 µM (inactive)	> 31.6 µM (inactive)	> 31.6 µM (inactive)	> 31.6 µM (inactive)	> 31.6 µM (inactive)	> 31.6 µM (inactive)	> 100 µM (inactive)	78.7 µM (inactive)	> 31.6 µM (inactive)
CC1(Br)Cc2ccccc2C1=O (stereo not given)	6.79 µM (inactive)	21.9 µM (inactive)	2.34 µM (inactive)	33.3 µM (inactive)	3.36 µM (inactive)	12.6 µM (inactive)	3.43 µM (inactive)	4.47 µM (inactive)	2.79 µM (inactive)	6.92 µM (inactive)	4.98 µM (inactive)	4.59 µM (inactive)	5.41 µM (inactive)	> 10 µM (inactive)	> 100 µM (inactive)	4.12 µM (inactive)	10.3 µM (inactive)	2.15 µM (inactive)	5.65 µM (inactive)	4.17 µM (inactive)
C/C(=N/NC(=S)Nc1cccc(Cl)c1)c1ccccn1	0.429 µM (active)	1.5 µM (inactive)	0.213 µM (active)	2.5 µM (inactive)	0.301 µM (active)	0.413 µM (active)	0.0474 µM (active)	1.31 µM (inactive)	< 0.0141 µM (active)	< 0.0172 µM (active)	0.593 µM (active)	0.0885 µM (active)	0.463 µM (active)	1.52 µM (inactive)	1.82 µM (inactive)	0.0395 µM (active)	0.0255 µM (active)	0.562 µM (active)	0.029 µM (active)	0.194 µM (active)
COc1cc2cc3c4cc(OC)c(OC)cc4cc[n+]3c(C)c2cc1OC.O=C([O-])CS(=O)(=O)O	20.7 µM (inactive)	22.3 µM (inactive)	10.8 µM (inactive)	17.7 µM (inactive)	> 100 µM (inactive)	> 100 µM (inactive)	> 100 µM (inactive)	42.3 µM (inactive)	24.2 µM (inactive)	70.5 µM (inactive)	42.7 µM (inactive)	8.69 µM (inactive)	7.87 µM (inactive)	> 100 µM (inactive)	> 100 µM (inactive)	80.9 µM (inactive)	74.5 µM (inactive)	88.3 µM (inactive)	68.4 µM (inactive)	> 100 µM (inactive)
